# Ends that are not written are not given here.
# T1: gamma carboxylase (Homo sapiens, UniProt P38435)
# T1 sequence (P38435 1-758): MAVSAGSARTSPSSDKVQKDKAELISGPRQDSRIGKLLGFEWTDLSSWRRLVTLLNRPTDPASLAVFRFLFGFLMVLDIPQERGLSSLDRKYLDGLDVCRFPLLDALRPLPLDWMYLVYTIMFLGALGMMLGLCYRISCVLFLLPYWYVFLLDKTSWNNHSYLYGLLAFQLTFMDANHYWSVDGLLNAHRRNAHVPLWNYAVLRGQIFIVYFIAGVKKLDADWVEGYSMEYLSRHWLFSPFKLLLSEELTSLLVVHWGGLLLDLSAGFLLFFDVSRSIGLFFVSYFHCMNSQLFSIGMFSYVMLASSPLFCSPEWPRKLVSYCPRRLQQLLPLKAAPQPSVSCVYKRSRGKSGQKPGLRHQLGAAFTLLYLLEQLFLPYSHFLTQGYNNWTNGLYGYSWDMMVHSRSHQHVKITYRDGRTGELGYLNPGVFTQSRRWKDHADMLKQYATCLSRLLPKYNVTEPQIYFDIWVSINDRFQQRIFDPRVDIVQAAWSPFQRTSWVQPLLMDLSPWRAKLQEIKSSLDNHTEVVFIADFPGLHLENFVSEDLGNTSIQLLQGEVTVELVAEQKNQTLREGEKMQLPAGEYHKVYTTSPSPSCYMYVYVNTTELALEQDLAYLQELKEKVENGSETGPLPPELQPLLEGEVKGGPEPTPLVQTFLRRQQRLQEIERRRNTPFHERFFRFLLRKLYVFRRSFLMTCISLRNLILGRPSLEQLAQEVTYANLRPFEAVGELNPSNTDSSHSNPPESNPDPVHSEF
# B1: Osteocalcin: normal (Gla-containing) osteocalcin, small vitamin K-dependent calcium binding protein; literature data (protein, listed as Homo sapiens)
# chain: MRALTLLALLALAALCIAGQAGAKPSGAESSKGAAFVSKQEGSEVVKRPRRYLYQWLGAPVPYPDPLEPRREVCELNPDCDELADHIGFQEAYRRFYGPV
# Tests used:
# Wild type adipocytes = assay: Adiponectin expression in wt adipocytes treated with osteocalcin (real time PCR); format: cell-based, mouse
# Description: (§1) FIG. 7. Esp−/− Mice Are a Model of Increased Osteocalcin Bioactivity. (A-G) Comparison between 6-week-old WT, Esp−/, Ocn+/−, and Esp−/−; Ocn+/− mice. (A) Blood glucose levels. (B) Serum insulin levels. (C) Serum adiponectin levels. (D) GTT. (E) ITT. (F) GSIS test. (G) Quantification of the number of Ki67-immunoreactive cells in pancreatic islets. […] (J) Expression of Adiponectin in WT adipocytes cocultured with osteoblasts treated with warfarin or vehicle. (K) Expression of Adiponectin in WT adipocytes cultured in presence of vehicle or of 1 ng/ml of commercially available carboxylated osteocalcin (Immunotopics) or bacterially produced uncarboxylated osteocalcin. (L) Expression of Insulin and Cyclin D1 in WT islets cultured in presence of 0.3 ng/ml of bacterially produced uncarboxylated osteocalcin or vehicle. (M) Metabolic parameters and total serum osteocalcin levels in control and obese patients. (N-O) Quantification of carboxylated osteocalcin (HA-bound osteocalcin) in control and obese patients. In (A)-(C) and (G)-(L): *p<0.05 versus WT (Student's t test); in (D)-(F), °p<0.05 versus WT and *p % 0.001 versus WT (ANOVA followed by post hoc analysis).
# FIG. 15. […] Wt adipocytes were treated for 4 hours with recombinant full-length osteocalcin (1-46) or a truncated form (1-36) or vehicle. Adiponectin expression was then quantified by real time PCR.
# Primary adipocytes were isolated from epididymal fat pads by collagenase digestion. Briefly, minced adipose tissue was digested by 1 mg/ml collagenase P in KRP Buffer (20 mM HEPES, 120 mM NaCl, 6 mM KCl, 1.2 mM MgSO4, 1 mM CaCl2, 0.6 mM Na2HPO4, 0.4 mM NaH2PO4, 2.5 mM D-glucose, 2% BSA, pH 7.4) for 1 h at 37° C. The isolated cells were washed twice with KRP Buffer before being cultured in αMEM/1% FBS at 37° C. in 5% CO2.
# (§2) All gene expression analyses were performed using real time PCR. DNAse I-treated total RNA was converted to cDNA with the SuperScript III kit (Invitrogen). Real-time PCR were performed using the Taq SYBR Green Supermix with ROX (Biorad) on an MX3000 instrument (Stratagene); beta-actin amplification was used as an internal reference for each sample. All primers were from SuperArray.
# Experiments were performed to test whether truncated osteocalcin was as effective as full-length uncarboxylated osteocalcin in stimulating adiponectin secretion from mouse adipocytes in vitro. Wild type adipocytes were treated for 4 hours with recombinant full-length osteocalcin (1-46) or a truncated form (1-36) (having a deletion of the […] ten amino acids from the C-terminal end) or vehicle. Adiponectin expression was then quantified by real time PCR. […]
# beta-cells = assay: Streptozotocin (STZ) injection in WT and Esp−/− mice: survival and blood glucose; format: in vivo, mouse; conditions: eight days after injection
# Description: FIG. 3. Esp−/− Mice Are Protected from Obesity and Glucose Intolerance. A-F) Food intake per day (A), body weight curve (B), fat pad mass (C), serum triglyceride levels (D), GTT (E), and ITT (F) in 4-month-old WT and Esp−/− mice 3 months after GTG or vehicle injection. (G-I) Body weight curve (G), GTT (H), and ITT (I) in 3 month-old WT and Esp−/− mice fed a high fat diet for 6 weeks. (J and K) Serum insulin levels (J) and pancreatic insulin content (K) in 1-month-old WT and Esp−/− mice 8 days after STZ or vehicle injection. (L and M) Survival of mice (L) and change of blood glucose levels (M) in 1-month-old WT and Esp−/− mice during the 8 days following STZ injection. (N) Urinary glucose assays in 1-month-old WT and Esp−/− mice 8 days after STZ injection. In (A)-(F), (J), and (K): a, WT versus Esp−/−; b, WT+GTG (or STZ) versus WT+vehicle; c, WT+GTG (or STZ) versus Esp−/−+GTG (or STZ); d, Esp−/−+GTG (or STZ) versus Esp−/−+vehicle. In (G)-(I) and (M), *p<0.05 WT versus Esp−/−. In (A), (C), (D), (J), and (K), Student's t test, p<0.05 for a-d; in (B), (E)-(I), (L), and (M), ANOVA followed by post hoc analysis when number of groups >2, p % 0.001 for a-d.
# For glucose tolerance test (GTT), glucose (2 g/kg body weight (BW)) was injected intraperitoneally (IP) after an overnight fast and blood glucose was monitored using blood glucose strips and the Accu-Check glucometer (Roche) at indicated times. For glucose stimulated insulin secretion test (GSIS), glucose (3 g/kg BW) was injected IP after an overnight fast; sera were collected from tails and insulin measured as described (Mauvais-Jarvis et al., 2000). For insulin tolerance test (ITT), mice were fasted for six hours, injected IP with insulin (0.2 U/kg BW) and blood glucose levels were measured at indicated times as described (Mauvais-Jarvis et al., 2002). ITT data are presented as percentage of initial blood glucose concentration. Gold thioglucose (600 mg/kg BW, USP) was injected IP after an overnight fast, mice were sacrificed 3 months later for analysis. Streptozotocin ([…] single injection, Sigma) was injected IP and blood glucose measured as described above every 2 days thereafter. After 8 days, pancreases were isolated to measure insulin content as previously described (Mauvais-Jarvis et al., 2000). Food intake was measured using metabolic cages as the daily change of food weight. Energy expenditure was measured using metabolic cages connected to a calorimeter (Columbus Instrument). Heat values (Kcal/Hr) were recorded over 2 days and reported to each mouse BW.
# Whether the increase in insulin sensitivity could protect Esp−/− mice from pancreatic beta-cell failure was determined. […] Unlike STZ-treated WT mice, glucose could not be detected in urine of STZ-injected Esp−/− mice (FIG. 3N).
# gamma carboxylase = target: T1, gamma carboxylase; conditions: thiol-specific inhibitors; cited from earlier work
# wild type osteoblasts = assay: Isoproterenol on wild type osteoblasts: mRNA levels by quantitative PCR; format: cell-based, mouse
# Experimental: as §2
# It was discovered that sympathetic nervous system (SNS) activity positively regulates Esp expression in osteoblasts. […] Thus, decreasing sympathetic activity should lead to a decrease in Esp expression and thereby to an increase in the undercarboxylated, active form of osteocalcin.
# WT adipocytes = assay: Adiponectin expression in WT adipocytes cocultured with warfarin-treated osteoblasts; format: cell-based, mouse; conditions: adipocytes cocultured with warfarin-treated vs vehicle-treated osteoblasts (FIG. 7J)
# Description: as §1
# Primary osteoblasts were prepared from calvaria of 5 day-old pups as previously described (Ducy et al., 2000a) and were cultured in αMEM/10% FBS in the presence of 100 μg/ml ascorbic acid and 5 mM β-glycerophosphate for 5 days. […]
# osteoblasts = assay: Osteocalcin/hydroxyapatite (HA) binding assay on medium of warfarin-treated osteoblasts; format: cell-based, mouse
# Experimental: Primary osteoblasts were prepared from calvaria of 5 day-old pups as previously described (Ducy et al., 2000a) and were cultured in αMEM/10% FBS in the presence of 100 μg/ml ascorbic acid and 5 mM β-glycerophosphate for 5 days. Skin fibroblasts were isolated by collagenase digestion (0.5 mg/ml) and were cultured in […]MEM/10% FBS. Twenty-four hours before addition of primary islets (or adipocytes), osteoblasts (or fibroblasts) were placed in αMEM/1% FBS. […] After 4 h of co-culture, either in the presence or absence of (1 μm) culture inserts (Falcon) islets (or adipocytes) were collected for RNA isolation using TRIZOL (Invitrogen).
# Sera from 1 month-old mice, obese patients or supernatant from warfarin-treated osteoblast cultures were added to HA slurry to achieve a final concentration of 25 mg slurry/ml. After 15 min (mouse sera, supernatant) or 30 min (human sera), HA beads were pelleted by centrifugation and HA-bound osteocalcin was eluted with 0.5M sodium phosphate buffer, pH 8.0. Osteocalcin present in eluates and initial samples was measured by IRMA. Values represent percentage of HA-bound osteocalcin over initial osteocalcin content. Hauschka, P. V., et al., Physiol Review 69, 990-1047 (1989).
# To determine whether this was the case, two additional experiments were performed. […] Second, carboxylated osteocalcin and bacterially produced mouse osteocalcin, which is not carboxylated, were used in cell-based assays. […] Lastly, we studied human obese patients that are hyperinsulinemic but not diabetic (FIG. 7M).
# [1] = osteoporotic patients, cited from earlier work
# [2] = read-out: Kd to hydroxyapatite; cited from earlier work
molecule,measurement,setting,value
"1-36 fragment of uncarboxylated osteocalcin: Recombinant truncated mouse osteocalcin (1-36), ten amino acids deleted from the C-terminal end (YLGASVPSPDPLEPTREQCELNPACDELSDQYGLKT; not fully specified; ends and bridges not checked; UniProt P86546 50-85, looked up, fragment)",Adiponectin expression increase,"Wild type adipocytes; wild type adipocytes treated for 4 hours, real time PCR, vs vehicle",~1.8 fold
same,potency in inducing adiponectin expression in vitro,"Wild type adipocytes; wt adipocytes, 4 hours (FIG. 15 legend)",as potent as native osteocalcin
"CN(N=O)C(=O)N[C@H]1C(O)O[C@H](CO)[C@@H](O)[C@@H]1O (mixture of isomers) [STZ, streptozotocin]",blood glucose level of surviving mice,beta-cells; STZ-treated Esp−/− mice,≤ 250 mg/dL
same,mice died,beta-cells; STZ-treated Esp−/− mice,one
same,mice died,beta-cells; STZ-treated WT mice,3 of the 7
same,serum glucose levels of surviving mice,beta-cells; STZ-treated WT mice,above 500 mg/dl
"CCN1C(=O)C=CC1=O [N-ethylmaleimide (NEM), N-ethylmaleimide]",inhibition of gamma carboxylase,gamma carboxylase,inhibited
CC(C)NCC(O)c1ccc(O)c(O)c1 (stereo not drawn) [isoproterenol],expression of gamma-carboxylase (ggcx),wild type osteoblasts,did not increase
same,expression of osteocalcin,wild type osteoblasts,did not increase
same,expression of vkor,wild type osteoblasts,did not increase
same,increase of Esp expression,wild type osteoblasts; at 8 hours,remains steady
same,increase of Esp expression,wild type osteoblasts; by 4 hours,about 80%
"O=C([O-])c1cc[c]([Hg][OH])cc1 [p-hydroxymurcuribenzoate (pHMB), p-hydroxymurcuribenzoate]",inhibition of gamma carboxylase,gamma carboxylase,inhibited
CC(=O)CC(c1ccccc1)c1c(O)c2ccccc2oc1=O (stereo not drawn) [warfarin],adiponectin expression induced by treated osteoblasts,WT adipocytes,significantly higher extent
same,percentage of osteocalcin bound to HA,"osteoblasts; conditioned medium of warfarin-treated osteoblasts vs vehicle, 50 μM, 48 h, 15 min HA incubation",marked decrease
same,osteocalcin secreted by osteoblasts,osteoblasts; warfarin-treated osteoblasts (vehicle 10 ng/ml),2 ng/mL
same,levels of undercarboxylated osteocalcin produced by osteoblasts,osteoblasts; warfarin-treated vs vehicle-treated osteoblasts (FIG. 7I),elevated
Vitamin D,effect on undercarboxylated osteocalcin,[1]; alone or together with Vitamin K,no significant effect
Vitamin K,percentage mean decrease in undercarboxylated osteocalcin,"[1]; four weeks of treatment, vs controls without Vitamin K",85%
"carboxylated osteocalcin: commercially available carboxylated osteocalcin (Immunotopics) (YLYQWLGAPVPYPDPLEPRREVCELNPDCDELADHIGFQEAYRRFYGPV; ends and bridges not checked; also: carboxylated (Gla) residues, sites not given here; UniProt P02818 52-100, looked up) [reference compound]",induction of adiponectin expression,"Wild type adipocytes; WT adipocytes, 1 ng/ml (FIG. 7K)",failed to induce
B1,Kd,[2],~100 nM
